Laboratory results taken from patent US6858588B2, “Nitrile glycoside useful as a bioenhancer of drugs and nutrients, process of its isolation from moringa oleifera” (Council of Scientific and Industrial Research, priority 2003, dated 2005).

How the values were obtained:
B. subtilis (MTCC121) = assay: Bioactivity enhancement of antibiotics (killing, broth/titre assay) against B. subtilis; type: cell-based, Bacillus subtilis; details: Table 5
M. smegmatis (MC^2 155) = assay: Bioactivity enhancement of antibiotics (killing, broth/titre assay) against M. smegmatis; type: cell-based, Mycobacterium smegmatis; details: Table 5
E. coli (CA8000) = assay: Bioactivity enhancement of antibiotics (killing, broth/titre assay) against E. coli
[1] = system: M.tuberculosis H37Rv (ATCC 27294); assay: Bioactivity enhancement of anti-tubercular drugs, radiometric BACTEC 460 TB system; type: cell-based, Mycobacterium tuberculosis; details: BACTEC 460, 12 days
[2] = Bioavailability test using gastro-intestinal epithelium (U-tube); type: in vitro ADME, goat; details: in combination; FIG. 3
From the text: Specially designed U-tubes of glass consisting of two components (opposite-L type) were used in which one open end of an L-shaped was tapered to fit within the end of the other L-tube (as described in U.S. Pat. No. 6,410,059). The membrane of goat gut (initial part) was stretched and fixed to act as the barrier between the two ends such that by joining the two L-tubes, a U-tube was made. Sterile distilled water was then filled in both the sides to equal height/level. The antibiotic/compound was added to the donor tube (tapered) and through spectro-photometer, the transfer of molecule was observed using UV and visible absorption maxima of the respective molecules by taking the OD at defined wavelengths (264 nm for isoniazid).

[3] = system: E. coli cells (CA 8000), λ phage; assay: λ phage adsorption on E. coli cells; details: Cells pretreated with niaziridin @ 1 ug/ml
Protocol: Overnight grown bacterial culture (Escherichia coli, CA 8000) was divided into 5 ml of aliquot each in screw cap tubes. One of the tube with the bacterial culture was treated with niaziridin to a final concentration of 1 μg/ml. Both the control and the treated tubes were incubated at 37° C. for 4 hours. The cultures were then infected with λ phage (MOI=10) for 10 minutes at 37° C. (for adsorption) followed by centrifugation at 10000 RPM for 10 minutes at 4° C.
The supernatant and the pellets for both treated and untreated cultures were then compared for the phage titer by plating on top agar containing sensitive bacteria at different dilutions.

C. albicans = assay: Enhancement of anticandidial activity of clotrimazole, broth assay; details: Clotrimazole 0.5 ug/ml + Niaziridin 10 ug/ml
E. coli DH5α = assay: Enhancement of bacterial transformation with pUC18 plasmid DNA, DH5α
Protocol: (§1) Overnight grown bacterial E. coli DH5α (Sambrook at al^28) cells were diluted to 10 folds in growth medium and treated with niaziridin @1-10 μg/ml for 4 hours at 37° C. in a shaker (200 RPM).
(§2) These log phase cells were then treated with calcium chloride to induce competence and then transformed with pUC18 plasmid DNA and plated on Luria agar plates containing 100 μg/ml ampicillin.

E. coli CA8000 = assay: Enhancement of bacterial transformation with pUC18 plasmid DNA, CA8000
Protocol: as §1, §2

[4] = anaesthetized rat, 1-10 mg/kg I.V; cited from earlier work
[5] = Amp (0.01) + Niaziridin 1.0 μg/ml
[6] = Nal (2.0) + Niaziridin 1.0 μg/ml
[7] = Rif (0.05) + Niaziridin 1.0 μg/ml
[8] = Tet (1.0) + Niaziridin 1.0 μg/ml
[9] = Amp (0.1) + Niaziridin 1.0 μg/ml
[10] = Nal (1.0) + Niaziridin 1.0 μg/ml
[11] = Tet (2.0) + Niaziridin 1.0 μg/ml
[12] = Cells pretreated with niaziridin at 1 ug/ml
[13] = Cells pretreated with niaziridin at 10 ug/ml
[14] = Table 4, Amp 6 μg/ml + Niaziridin 0.1 μg/ml
[15] = Table 4, Nal 6 μg/ml + Niaziridin 0.1 μg/ml
[16] = Table 4, Rif 20 μg/ml + Niaziridin 0.1 μg/ml
[17] = Table 4, Rif 30 μg/ml + Niaziridin 0.1 μg/ml
[18] = Table 4, Tet 1 μg/ml + Niaziridin 0.1 μg/ml
[19] = Table 4, Tet 2 μg/ml + Niaziridin 0.1 μg/ml

## CCn1cc(C(=O)O)c(=O)c2ccc(C)nc21 [Nal, nalidixic acid, reference compound]
B. subtilis (MTCC121); Nal (2.0) alone
  % Survival: 7.75%
  Titre: 3.1 × 10^7
M. smegmatis (MC^2 155); Nal (1.0) alone
  % Survival: 92.5%
  Titre: 3.7 × 10^8
E. coli (CA8000); Table 4, Nal 6 μg/ml alone
  % Survival: 1.0%
  Titre: 6.0 × 10^6

## CC1OC(Oc2ccc(CC#N)cc2O)C(O)C(O)C1O (stereo not drawn) [Niaziridin, NIAZIRIDIN]
B. subtilis (MTCC121); [5]
  % Survival: 14.2%
  Folds enhancement in killing: 5.1 folds
  Titre: 5.7 × 10^7
B. subtilis (MTCC121); [6]
  % Survival: 1.1%
  Folds enhancement in killing: 7.0 folds
  Titre: 4.6 × 10^6
B. subtilis (MTCC121); [7]
  % Survival: 2.7%
  Folds enhancement in killing: 19.4 folds
  Titre: 1.1 × 10^7
B. subtilis (MTCC121); [8]
  % Survival: 5.0%
  Folds enhancement in killing: 3.5 folds
  Titre: 2.0 × 10^7
B. subtilis (MTCC121); range over both Gram (+) strains (B. subtilis and M. smegmatis)
  Enhancement of activity of rifampicin, ampicillin, nalidixic acid: 1.2-19 folds
M. smegmatis (MC^2 155); [9]
  % Survival: 5.25%
  Folds enhancement in killing: 4.7 folds
  Titre: 2.1 × 10^7
M. smegmatis (MC^2 155); [10]
  % Survival: 75.0%
  Folds enhancement in killing: 1.2 folds
  Titre: 3.0 × 10^8
M. smegmatis (MC^2 155); [7]
  % Survival: 16.75%
  Folds enhancement in killing: 1.9 folds
  Titre: 6.7 × 10^6
M. smegmatis (MC^2 155); [11]
  % Survival: 7.5%
  Folds enhancement in killing: 4.0 folds
  Titre: 3.0 × 10^7
[1]; FIG. 1
  Enhancement of antimycobacterial activity of rifampicin (Growth Index): able to enhance
[1]; FIG. 2
  Enhancement of antimycobacterial activity of isoniazid (Growth Index): able to enhance
[2]
  Uptake of nutrients like Vitamine B12 through the intestinal gut membrane: able to facilitate the uptake
[3]; MOI 5
  Phage titer, Pellet: 7.7 10^7 pfu
  Phage titer, Supernatant: 7.7 10^7 pfu
[3]; MOI 10
  Phage titer, Pellet: 18.0 10^7 pfu
  Phage titer, Supernatant: 8.0 10^7 pfu
C. albicans
  Cfu/ml at 36 h: 4.5 × 10^5 Cfu/ml
C. albicans; 36 h
  Fold enhancement of lethal activity: 5.2 fold
E. coli DH5α; [12]
  Fold enhancement in DNA transformation: 1.9 fold
  Titre (transformants): 16.0 10^4
E. coli DH5α; [13]
  Fold enhancement in DNA transformation: 2.3 fold
  Titre (transformants): 20.0 10^4
E. coli CA8000; [12]
  Fold enhancement in DNA transformation: 1.9 fold
  Titre (transformants): 8.30 10^3
E. coli CA8000; [13]
  Fold enhancement in DNA transformation: 5.5 fold
  Titre (transformants): 24.0 10^3
E. coli (CA8000); [14]
  % Survival: 0.69%
  Fold enhancement in killing over antibiotic alone: 5.3 fold
  Titre: 1.6 × 10^6
E. coli (CA8000); [15]
  % Survival: 0.02%
  Fold enhancement in killing over antibiotic alone: 50.0 fold
  Titre: 1.2 × 10^5
E. coli (CA8000); [16]
  % Survival: 0.0035%
  Fold enhancement in killing over antibiotic alone: 38.8 fold
  Titre: 3.9 × 10^3
E. coli (CA8000); [17]
  % Survival: 0.003%
  Fold enhancement in killing over antibiotic alone: 12.6 fold
  Titre: 3.0 × 10^3
E. coli (CA8000); [18]
  % Survival: 0.5%
  Fold enhancement in killing over antibiotic alone: 2.3 fold
  Titre: 3.0 × 10^6
E. coli (CA8000); [19]
  % Survival: 0.11%
  Fold enhancement in killing over antibiotic alone: 5.2 fold
  Titre: 7.5 × 10^5
E. coli (CA8000); text summary of Table 4
  Enhancement of activity of commonly used antibiotics (rifampicin, tetracycline, nalidixic acid etc): enhanced activity

## COC(=S)NCc1ccc(O[C@@H]2O[C@@H](C)[C@H](O)[C@@H](O)[C@H]2O)cc1 [niazinin A]
[4]
  Hypotensive and bradycardiac effect: produced hypotensive and bradycardiac effect

## CN(C)[C@@H]1C(=O)C(C(N)=O)=C(O)[C@@]2(O)C(=O)C3=C(O)c4c(O)cccc4[C@@](C)(O)[C@H]3C[C@@H]12 [Tet, tetracycline, reference compound]
B. subtilis (MTCC121); Tet (1.0) alone
  % Survival: 17.5%
  Titre: 7.0 × 10^7
M. smegmatis (MC^2 155); Tet (2.0) alone
  % Survival: 30.0%
  Titre: 1.2 × 10^8
E. coli (CA8000); Table 4, Tet 1 μg/ml alone
  % Survival: 1.16%
  Titre: 7.0 × 10^6
E. coli (CA8000); Table 4, Tet 2 μg/ml alone
  % Survival: 0.58%
  Titre: 3.5 × 10^6

## niazinin B
[4]
  Hypotensive and bradycardiac effect: produced hypotensive and bradycardiac effect

## CO[C@H]1/C=C/O[C@@]2(C)Oc3c(C)c(O)c4c(O)c(c(/C=N/N5CCN(C)CC5)c(O)c4c3C2=O)NC(=O)/C(C)=C\C=C\[C@H](C)[C@H](O)[C@@H](C)[C@@H](O)[C@@H](C)[C@H](OC(C)=O)[C@@H]1C [Rif, rifampicin]
B. subtilis (MTCC121); Rif (0.05) alone
  % Survival: 52.5%
  Titre: 2.1 × 10^8
M. smegmatis (MC^2 155); Rif (0.05) alone
  % Survival: 32.5%
  Titre: 1.3 × 10^7
E. coli (CA8000); Table 2, Rif 20 μg/ml alone
  % Survival: 24.2%
  Titre: 3.4 × 10^7
E. coli (CA8000); Table 2, Rif 30 μg/ml alone
  % Survival: 21.4%
  Titre: 3.0 × 10^7
E. coli (CA8000); Table 3, Rif 20 μg/ml alone
  % Survival: 40.0%
  Titre: 1.00 × 10^8
E. coli (CA8000); Table 3, Rif 30 μg/ml alone
  % Survival: 23.3%
  Titre: 5.81 × 10^7
E. coli (CA8000); Table 4, Rif 20 μg/ml alone
  % Survival: 0.0136%
  Titre: 1.5 × 10^4
E. coli (CA8000); Table 4, Rif 30 μg/ml alone
  % Survival: 0.038%
  Titre: 3.8 × 10^4
